According to patent US11851389B2, “Cationic lipids for nucleic acid delivery and preparation thereof” (RAMOT AT TEL-AVIV UNIVERSITY LTD., priority 2016, dated 2023):
Entries after “also recorded” stand apart in the source; their conditions may differ.

Assays:
[1] = LNP size distribution, PDI and ζ potential by dynamic light scattering; assay type: physicochemical; details: LNP-siRNA formulations; for PDI / Size (d · nm): DLS
Procedure: LNPs were prepared by using microfluidic micro mixture (Precision NanoSystems, Vancouver, BC, Canada) as described by Cohen et. al. One volume of lipid mixtures (cationic lipid, DSPC, Chol, DMG-PEG and DSPE-PEG Mal at 50:10:38:1.5:0.5 mole ratio, […] total lipid concentration) in ethanol and three volumes of siRNA (1:16 w/w siRNA to lipid) containing acetate buffer solutions were injected through the micro mixer at a combined flow rate of 2 mL/minute (0.5 mL/min for ethanol and 1.5 mL/min for aqueous buffer). For labeled LNPs, 10% of Alexa-647 labeled siRNA were incorporated. For Cy5 labeled particles, 10% Cy5 labeled non-targeted siRNA was used. The resultant mixture was dialyzed against PBS (pH 7.4) for 16 h to remove ethanol.
LNPs size distribution and ζ potential were determined by dynamic light scattering using a Malvern nano ZS ζ-sizer (Malvern instruments, UK). For size measurements, LNPs were diluted 1:20 in PBS. […] For ζ potential measurements, LNPs were diluted 1:200 in DDW. In some cases, as indicated, size and zeta potential measurements were performed in water.

Human T cells SupT1 = assay: In vitro CD45 gene silencing by LNP-siCD45, flow cytometry; assay type: cell-based; details: LNP with siCD45, 48 hrs or 72 hrs, 0.4, 0.2, 0.1 μM siRNA
Procedure: (§1) Supt1 or NAR or OVCAR cells were placed in tissue culture 12-wells plates at a density of 1×10^5 cells with 1 mL of full medium. LNPs containing different siRNAs (siPLK1 or siCD45 or siLUC) were added to the wells and the concentration was mentioned in figures. Cells were isolated at different time intervals mentioned in the figures and analyzed by either flow cytometry (for siCD45 knockdown), or qPCR for analysis of PLK1 silencing. Apoptosis assay using PI/Annexin was analyzed by flow cytometry in case of siPLK1 induced cell death.
FIG. 1 depicts in vitro gene silencing effect lipid 1: Human T cells SupT1 were treated with lipid nanoparticle (LNP) comprising of cationic lipid 1 encapsulated siCD45 for 48 hrs (A) or 72 hrs (B) at different siRNA doses (0.4 μM, 0.2 μM, 0.1 μM).

[2] = test system: Drug resistant human ovarian carcinoma cells (NAR); assay: PLK-1 expression by qPCR after LNP-siPLK-1 or LNP-siLuc; assay type: cell-based; details: 72 hrs
Procedure: (§2) The mRNA levels of pololike kinase 1 (PLK1 gene) in cells was quantified by real-time PCR, forty eight or Seventy-two hours post-transfection. Total RNA was isolated using the E-Z RNA purification kit (Biological industries, Beit Haemek, Israel), and 1 μg of RNA from each sample was reverse transcribed into cDNA using the High Capacity cDNA Reverse Transcription Kit (Applied Biosystems, Foster City, CA), Quantification of cDNA (5 ng total) was performed on the step one Sequence Detection System (Applied Biosystems, Foster City, CA) using syber green (Applied Biosystems). GAPDH was chosen as a housekeeping gene.
as §1
Drug resistant human ovarian carcinoma cells (NAR) were treated with either LNP-siPLK-1 or LNP-siLuc nanoparticles Lipid 1 LNPs (A); Lipid 10&11 LNPs (B) for 72 hrs and PLK-1 expression was measured by qPCR as described in Example 1.

[3] = test system: Human ovarian cancer cells (NAR cells); assay: Apoptosis by FACS using PI/Annexin after siPLK1-LNPs; assay type: cell-based; details: 48 hr
Procedure: as §1
Human ovarian cancer cells (NAR cells) were treated with lipid1/siPLK1 nanoparticles for 48 hr at different siRNA concentrations (0.2 μM and 0.1 μM). Apoptotic cells were analyzed by FACS using PI/Annexin. […] Percentage of early apoptotic cells was higher in cells treated with siPLK1-LNPs at 0.2 uM dose of siPLK1.
Human ovarian cancer cells (NAR cells) were treated with either lipid10 or lipid 11/siPLK1 nanoparticles for 48 hr at different siRNA concentrations (0.1 μM and 0.05 μM). siLUC-LNPs used as a negative control. Apoptotic cells were analyzed by FACS using PI/Annexin.

[4] = test system: Human ovarian carcinoma cells (OVCAR 8); assay: PLK-1 expression by qPCR after LNP-siPLK1 or siLUC; assay type: cell-based; details: OVCAR 8, 72 hr
Procedure: as §2, §1
Human ovarian carcinoma cells (OVCAR 8) were treated with lipid 1 containing LNPs with either siPLK1 or siLUC for 72 hr and PLK-1 expression was measured by qPCR.

[5] = test system: Spheroids of drug resistant human ovarian carcinoma cells (NAR); assay: PLK-1 expression by qPCR in 3D spheroids; assay type: cell-based; details: 72 hr
Procedure: as §2
Spheroids of drug resistant human ovarian carcinoma cells (NAR) were treated with LNPs composed of lipid1 and with either siPLK-1 or siLuc s for 72 hr and PLK-1 expression was measured by qPCR. Spheroids are 3D cultures of tumor cells mimicking in vivo tumors.

HEK 293 cells = assay: In vitro expression of mKATE-pDNA, flow cytometry; assay type: cell-based; details: 72 hr
Procedure: In vitro expression of pDNA in HEK 293 cells: HEK cells were treated with LNPs composed of either lipid1 or lipid 10 encapsulated with mKATE-pDNA at the concentration of 0.6 nM pDNA. After 72 hr, mKATE expression was analyzed by flow cytometry.
Dose dependent expression of pDNA in HEK 293 cells: HEK cells were treated with LNPs composed of either lipid1 or lipid 10 encapsulated with mKATE-pDNA at different amount pDNA. After 72 hr, mKATE expression was analyzed by flow cytometry.

[6] = test system: Human colon carcinoma cells (HCT116); assay: Toxicity of LNPs with ctl siRNA, XTT cell viability; assay type: cell-based; details: 72 hrs
Procedure: Human colon carcinoma cells (HCT116) were incubated with LNPs with ctl siRNA (see methods) for 72 hrs. The cell viability was measured by XTT assay. Toxicity of LNPs composed of either lipid 38 or lipid 55 is compared with gold standard LNPs composed of Dlin-MC3-DMA.

[7] = test system: Human multiple myeloma suspension cells (U266); assay: PLK1 expression by qPCR after siPLK1-LNPs; assay type: cell-based; details: U266, 48 hrs, normalized to LNPs-ctl siRNA treated cells
Procedure: as §2
Human multiple myeloma suspension cells (U266) were incubated with LNPs containing siPLK1 at different concentrations for 48 hrs. PLK1 expression was measured by qPCR. PLK1-mRNA levels were normalized to LNPs-ctl siRNA treated cells.

[8] = test system: Human multiple myeloma suspension cells (U266); assay: Cell viability after PLK1 silencing, XTT assay; assay type: cell-based; details: U266, 48 hrs
Procedure: Human multiple myeloma suspension cells (U266) were incubated with siPLK1-LNPs or siCtl-LNPs composed of either lipid 38 or 55 at different concentrations for 48 hrs. Cell viability affected by PLK1 down regulation was measured by XTT assay.

[9] = test system: Human B-cell lymphoma suspension cells (RPMI-8226); assay: Cell viability after PLK1 silencing, XTT assay; assay type: cell-based; details: RPMI-8226, 48 hrs
Procedure: Human B-cell lymphoma suspension cells (RPMI-8226) were incubated with siPLK1-LNPs or siCtl-LNPs composed of either lipid 38 or 55 at different concentrations for 48 hrs. Cell viability affected by PLK1 down regulation was measured by XTT assay.

[10] = test system: Human multiple myeloma suspension cells (MM1); assay: Cell viability after PLK1 silencing, XTT assay; assay type: cell-based; details: MM1, 48 hrs
Procedure: Human multiple myeloma suspension cells (MM1) were incubated with siPLK1-LNPs or siCtl-LNPs composed of either lipid 38 or 55 at different concentrations for 48 hrs. Cell viability affected by PLK1 down regulation was measured by XTT assay.

[11] = test system: Human colon carcinoma cells (HCT 116); assay: In vitro expression of LUC pDNA, luminometer; assay type: cell-based; details: HCT 116, LNPs-LUC pDNA with DOPE, Chol, PEG-DMG, 48 hrs
Procedure: Human colon carcinoma cells (HCT 116) were incubated with LNPs-LUC pDNA at different concentrations for 48 hrs. Luciferase expression was measured by luminometer. Lipofectamine 2000 (Lipo 2000) was used as positive control. LNPs were composed of lipid 38 and different amounts of co-lipid DOPE, along with other co-lipids such as Chol, PEG-DMG.

[12] = test system: murine macrophage cells (RAW 264.7); assay: In vitro delivery of luciferase mRNA, luminometer; assay type: cell-based; details: 18 hrs
Procedure: Hard to transfect murine macrophage cells (RAW 264.7) were treated with LNPs composed of either Lipid38 or Lipid 54 and formulated with luciferase mRNA at different amounts of mRNA. After 18 hrs luciferase expression was measured by luminometer.

C57BL6/j mice [13] = assay: In vivo delivery of luciferase mRNA to muscle cells, intramuscular, bioluminescence imaging; details: i.m., 1 mg/kg body weight
Procedure: LNPs composed of either lipid 54 or lipid 38 formulated with luciferase mRNA were administered intramuscularly in to C57BL6/j mice at 1 mg/kg body weight. Luciferase expression was measured by bioluminescence imaging system Biospace: (a) after 8 hrs of i.m. administration; and (b) after 24 hrs. […] The expression was still high 24 hrs after the administration of LNPs indicating the efficiency of these lipids in delivering mRNA in vivo.

C57BL6/j mice [14] = assay: In vivo delivery of luciferase mRNA to liver, intravenous, bioluminescence imaging; details: intravenously, 1 mg/kg body weight
Procedure: LNPs composed of either lipid 54 or lipid 38 formulated with luciferase mRNA were administered intravenously into C57BL6/j mice at 1 mg/kg body weight. After 8 hrs, luciferase expression was measured by bioluminescence imaging system Biospace.
LNPs composed of lipid 38 formulated with luciferase mRNA were administered intravenously into C57BL6/j mice at 1 mg/kg body weight. After 8 hrs and 24 hrs of administration, luciferase expression was measured by bioluminescence imaging system Biospace.

Cynomolgus monkeys = assay: Liver toxicity (serum ALT, AST) in non-human primate; assay type: in vivo; details: single i.v. 0.5 mg/kg, particles with siNC5, serum at 1 and 24 h, compared with MC3
Procedure: Cynomolgus monkeys (n=2 per group, males) received a single I.v. administration (1 ml/kg) of (0.5 mg/kg) of MC3 particles with siNC5 and lipid 38-based particles with siNC5 (0.5 mg/Kg). At 1 and 24 h post administration serum was collected at and analyzed for ALT, AST (by Roch Cobra Auto analyzer). Each data point is an average of 2 animals±SEM.

## CCCCC/C=C\C/C=C\CCCCCCCCNN(CCCCCCCC/C=C\C/C=C\CCCCC)CCN(C)C [Lipid 1, 2-(1,2-di((9Z,12Z)-octadeca-9,12-dien-1-yl)hydrazinyl)-N,N-dimethylethan-1-amine]
[1]
  Zeta-potential (mV): 18.5 mV
  PDI: 0.14
  Size (d · nm): 45.1 nm
Human T cells SupT1
  CD45 gene down-regulation: down-regulate CD45 gene in hard to transfect T cells
[2]
  PLK-1 expression, LNP-siLuc control siRNA: did not affect plk1 expression
  PLK-1 expression, LNP-siPLK-1: downregulating the proto-oncogene PLK1 efficiently
[3]; 0.2 uM dose of siPLK1
  Percentage of early apoptotic cells: higher
[3]; PI/Annexin FACS
  Apoptosis induced by siPLK1-LNPs: inducing apoptosis in cancer cell
[3]; control siRNA
  Effect on cell cycle of siLUC-LNPs: no effect on cell cycle
[4]
  PLK-1 expression, siPLK1-LNPs: efficiently downregulating PLK1 gene compared to dlin-mc3-dma containing LNPs
[5]
  PLK-1 expression, siPLK1-LNPs: significantly downregulating PLK1 gene compared to siLUC-LNPs
HEK 293 cells; HEK 293, 0.6 nM pDNA
  mKATE expression: mKATE expression was observed
HEK 293 cells; HEK 293, different amount pDNA
  Dose dependence of mKATE expression: did not show any dose dependent expression

## CCCCC/C=C\C/C=C\CCCCCCCCN(CCCCCCCC/C=C\C/C=C\CCCCC)CCOC(=O)CCCN(C)C [Lipid 38]
[1]
  Zeta-potential (mV): 6.7 mV
  PDI: 0.08
  Size (d · nm): 59.0 nm
[6]
  Toxicity of LNPs (cell viability): less toxic than LNPs composed of Dlin-MC3-DMA
[7]
  PLK1 expression, siPLK1-LNPs: efficiently down regulate
[8]
  Cell viability, siCtl-LNPs: no effect on the cell viability
  Cell viability, siPLK1-LNPs: more effect on cell viability compared to Dlin-MC3-DMA LNPs
[9]
  Cell viability, siCtl-LNPs: no effect on the cell viability
  Cell viability, siPLK1-LNPs: dose dependent effect on B-cell lymphoma cancer cell viability
[10]
  Cell viability, siCtl-LNPs: no effect on the cell viability
  Cell viability, siPLK1-LNPs: dose dependent effect on multiple myeloma cancer cell viability
[11]
  Delivery of pDNA to the nucleus: efficiently delivering pDNA to the nucleus
[12]; RAW 264.7, different amounts of mRNA
  Dose dependence of luciferase expression: dose dependent expression was observed
[12]; RAW 264.7, luciferase mRNA LNPs
  Luciferase expression: efficiently compared to lipid 54-LNPs
C57BL6/j mice [13]; 8 hrs
  Luciferase expression after 8 hrs: significant amounts of luciferase
C57BL6/j mice [13]; 24 hrs
  Luciferase expression after 24 hrs: still high
C57BL6/j mice [14]
  Luciferase expression in liver, 8 hrs versus 24 hrs: high after 8 hrs compared to after 24 hrs
C57BL6/j mice [14]; 8 hrs, 1 mg/kg
  Luciferase expression in liver: significant amount of luciferase in mouse liver compared to LNPs composed of lipid 54; also recorded: significant amount of luciferase expression was observed in liver
Cynomolgus monkeys
  Liver toxicity (ALT, AST): No liver toxicity
